Measured values reported in patent US8795739B2, “Iron fortified food product and additive” (Magqu Co. Ltd., priority 2012, dated 2014).

System: Caco-2 cells
Experiment: Iron bioavailability test in the in vitro digestion/Caco-2 cell culture system (ferritin ELISA, Bradford total protein)
Assay type: in vitro ADME, Human
Procedure: The assay followed the guidance of Department of Health, Executive Yuan, R.O.C. (TAIWAN) and was conducted to analyze the cytotoxicity and the iron bioavailability of Fe3O4 microspheres in the in vitro digestion/Caco-2 cell culture system. The iron bioavailability from the test article could be evaluated by an in vitro system including enzymatic digestion, iron uptake and ferritin determination via an Enzyme-linked immunosorbent assay (ELISA).
• Cell line: Human colon adenocarcinoma, clone of Caco-2. BCRC 80182. • Culture medium: Minimum Essential Medium (MEM) without any additional iron, iron conc.<8 μg/L. • Culture condition: 37±1° C. with 5% C02 incubator. • EBSS/MES buffer: Earle's balanced salt solution (EBSS) ? 10 mM MES (2-[4-morpholino]-ethanesulfonic acid) buffer, pH 6.0. • MEM enrichment medium: hydrocortisone (4 mg/L) ? 10 mM PIPES (piperazine-N,N′-bis-[2-ethanesulfonic acid]) ? 1% antibiotic-antimycotic solution ? insulin (5 mg/L) ? sodium selenite (5 μg/L) ? triiodothyronine ([…]) and epidermal growth factor (2 μg//L). • Iron removal solution: 1 mM bathophenanthroline disulfonic acid (BPDS) and 5 mM sodium hydrosulfite were dissolved in the rinse solution. • Rinse solution: 140 mM NaCl ? 5 mM KCI ? 10 mM PIPES, pH 7.0. Grouping:
The test article were two sizes of Fe3O4 microspheres with an average diameter of 800 nanometer (nm) and 3000 nm, respectively. Both microspheres were placed in a buffer with a pH value ranges from 5-7. Preferably, the buffer was water or Phosphate Buffered Saline (PBS). In this experiment, the buffer was Phosphate Buffered Saline.
• The digestion of the test article: 0.5 mL of test article was dissolved in 1 mL of 1 N HCl solution, and incubated at 37±1° C. for 16 hours. The final iron concentration was 100 μM. Phosphate buffered saline was used as the negative control and treated in the same condition without the test article. • Iron bioavailability test: • i. […] Measured the absorbance at 595 nm with an ELISA reader. • ii. […] Determined by, the human ferritin enzyme immunoassay test kit. • ii. […]

O=S(=O)([O-])[O-].[Fe+2] [FeSO4]
Tested Ferritin (Caco-2 cell lysate, 24 hours treatment, 50 μM FeSO4 (positive control)): 61.1 ± 1.6 ng/mL
Calibrated Ferritin (ferritin calibrated by total protein, Caco-2, 24 hours, 50 μM FeSO4 (positive control)): 255.9±15.4 ng/mg protein
Iron availability (relative to positive control, Caco-2, 24 hours, 50 μM FeSO4): 100%
